Measured values from patent US8569267B2, “Tetracyclic tetrahydrofuran derivatives containing cyclic amine side chain” (Janssen Pharmaceutica, NV, priority 2005, dated 2013).

Experiments:
[1] = target: T1, human cloned 5-HT2A receptor, expressed in L929 cells (Homo sapiens, UniProt P28223); assay: In vitro binding affinity for 5-HT2A receptor ([125I]R91150 radioligand binding); conditions: human cloned 5-HT2A receptor in L929 cells, [125I]R91150; read-out: 5-HT2A pIC50 (converted)
T1 construct: expressed in transfected cells; host or cells: L929 cells
T1 sequence (P28223 whole entry): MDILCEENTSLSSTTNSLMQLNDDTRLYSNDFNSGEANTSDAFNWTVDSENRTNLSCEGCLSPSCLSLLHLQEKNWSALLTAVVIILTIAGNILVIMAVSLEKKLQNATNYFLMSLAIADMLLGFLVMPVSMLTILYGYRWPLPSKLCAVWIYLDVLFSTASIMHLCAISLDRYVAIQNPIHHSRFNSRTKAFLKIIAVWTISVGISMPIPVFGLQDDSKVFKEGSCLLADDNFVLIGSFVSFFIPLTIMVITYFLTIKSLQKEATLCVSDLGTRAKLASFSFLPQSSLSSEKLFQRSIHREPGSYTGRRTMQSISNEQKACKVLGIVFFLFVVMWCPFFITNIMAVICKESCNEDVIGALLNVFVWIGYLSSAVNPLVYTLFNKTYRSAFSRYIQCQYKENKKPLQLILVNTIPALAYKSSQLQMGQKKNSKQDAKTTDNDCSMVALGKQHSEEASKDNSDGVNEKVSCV
Description: (§1) In Vitro Binding Affinity for 5-HT2A and 5-HT2C Receptors
(§2) The interaction of the compounds of Formula (I) with 5-HT2A and 5-HT2C receptors was assessed in in vitro radioligand binding experiments. […] During the incubation, the radioligands bind to the receptor. When equilibrium of binding is reached, the receptor bound radioactivity is separated from the non-bound radioactivity, and the receptor bound activity is counted. The interaction of the test compounds with the receptors is assessed in competition binding experiments. Various concentrations of the test compound are added to the incubation mixture containing the tissue preparation and the radioligand. Binding of the radioligand will be inhibited by the test compound in proportion to its binding affinity and its concentration. The affinities of the compounds for the 5-HT2 receptors were measured by means of radioligand binding studies conducted with: (a) human cloned 5-HT2A receptor, expressed in L929 cells using [^125I]R91150 as radioligand and (b) human cloned 5-HT2C receptor, expressed in CHO cells using [^3H]mesulergine as radioligand.

[2] = target: T2, NET (norepinephrine transporter) (Rattus norvegicus, UniProt Q63380); assay: In vitro determination of NET reuptake inhibition ([3H]Nixosetine binding, rat brain cortex); conditions: rat brain cortex; for IC50: read-out: NET pIC50 (converted)
T2 construct: Cortex from rat brain was collected and homogenised; from tissue; host or cells: rat brain cortex
T2 sequence (Q63380 1-617): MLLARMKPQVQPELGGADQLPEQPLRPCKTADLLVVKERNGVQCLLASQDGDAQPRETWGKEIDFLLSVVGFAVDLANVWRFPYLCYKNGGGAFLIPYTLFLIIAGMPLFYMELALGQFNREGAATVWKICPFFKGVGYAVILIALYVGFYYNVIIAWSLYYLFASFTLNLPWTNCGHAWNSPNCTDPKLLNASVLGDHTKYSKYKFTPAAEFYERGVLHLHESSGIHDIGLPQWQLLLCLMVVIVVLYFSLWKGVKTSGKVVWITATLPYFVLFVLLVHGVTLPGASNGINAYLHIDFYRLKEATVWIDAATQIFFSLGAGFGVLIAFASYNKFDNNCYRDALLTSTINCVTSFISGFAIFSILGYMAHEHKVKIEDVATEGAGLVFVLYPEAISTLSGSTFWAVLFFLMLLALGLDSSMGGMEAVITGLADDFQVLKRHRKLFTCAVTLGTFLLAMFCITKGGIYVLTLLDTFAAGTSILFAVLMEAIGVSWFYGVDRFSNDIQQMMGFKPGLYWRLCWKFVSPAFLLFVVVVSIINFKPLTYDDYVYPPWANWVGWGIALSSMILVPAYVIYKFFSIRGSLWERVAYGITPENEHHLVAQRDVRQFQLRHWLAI
Description: In Vitro Determination of NET Reuptake Inhibition
Cortex from rat brain was collected and homogenised using an Ultra-Turrax T25 and a Dual homogeniser in ice-cold homogenising buffer containing Tris, NaCl and KCl (50 mM, 120 mM and 5 mM, respectively, pH 7.4) prior to dilution to an appropriate protein concentration optimised for specific and non-specific binding. […] Membrane-bound activity was detected by filtration through a Packard Filtermate harvester onto GF/B Unifilterplates, washed with ice-cold Tris-HCl buffer, containing NaCl and KCl (50 mM, 120 mM and 4 mM; pH 7.4; 6×0.5 ml). Filters were allowed to dry for 24 h before adding scintillation fluid. Scintillation fluid was allowed to saturate filters for 24 h before counting in a Topcount scintillation counter. Percentage specific bound and competition binding curves were calculated using S-Plus software (Insightful).

[3] = target: T3, human cloned 5-HT2C receptor, expressed in CHO cells (Homo sapiens, UniProt P28335); assay: In vitro binding affinity for 5-HT2C receptor ([3H]mesulergine radioligand binding); conditions: human cloned 5-HT2C receptor; for IC50: read-out: 5-HT2C pIC50 (converted)
T3 construct: expressed in transfected cells; host or cells: CHO cells
T3 sequence (P28335 33-458): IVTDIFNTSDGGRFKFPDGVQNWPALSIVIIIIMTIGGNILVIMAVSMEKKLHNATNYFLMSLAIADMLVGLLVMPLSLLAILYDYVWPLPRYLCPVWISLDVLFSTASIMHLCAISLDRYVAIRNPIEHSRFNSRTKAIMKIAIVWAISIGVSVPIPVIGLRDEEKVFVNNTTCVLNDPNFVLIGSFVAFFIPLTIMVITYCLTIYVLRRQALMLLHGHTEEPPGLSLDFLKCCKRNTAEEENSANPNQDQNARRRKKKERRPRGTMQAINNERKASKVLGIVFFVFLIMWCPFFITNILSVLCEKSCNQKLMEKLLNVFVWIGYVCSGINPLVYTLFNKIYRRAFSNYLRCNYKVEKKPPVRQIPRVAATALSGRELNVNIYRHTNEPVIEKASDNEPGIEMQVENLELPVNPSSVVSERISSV
Description: as §1
as §2, with “concentration.” for “concentration. The affinities of the compounds for the 5-HT2 receptors were measured by means of radioligand binding studies conducted with: (a) human cloned 5-HT2A receptor, expressed in L929 cells using [^125I]R91150 as radioligand and (b) human cloned 5-HT2C receptor, expressed in CHO cells using [^3H]mesulergine as radioligand.”

[4] = target: T4, human Dopamine D2L receptor (Homo sapiens, UniProt P14416); assay: In vitro binding affinity for human D2L receptor ([3H]Spiperone binding); conditions: human D2L receptor-transfected CHO cell membranes; for IC50: read-out: D2L pIC50 (converted)
T4 construct: expressed in transfected cells; host or cells: CHO cells
T4 sequence (P14416 whole entry): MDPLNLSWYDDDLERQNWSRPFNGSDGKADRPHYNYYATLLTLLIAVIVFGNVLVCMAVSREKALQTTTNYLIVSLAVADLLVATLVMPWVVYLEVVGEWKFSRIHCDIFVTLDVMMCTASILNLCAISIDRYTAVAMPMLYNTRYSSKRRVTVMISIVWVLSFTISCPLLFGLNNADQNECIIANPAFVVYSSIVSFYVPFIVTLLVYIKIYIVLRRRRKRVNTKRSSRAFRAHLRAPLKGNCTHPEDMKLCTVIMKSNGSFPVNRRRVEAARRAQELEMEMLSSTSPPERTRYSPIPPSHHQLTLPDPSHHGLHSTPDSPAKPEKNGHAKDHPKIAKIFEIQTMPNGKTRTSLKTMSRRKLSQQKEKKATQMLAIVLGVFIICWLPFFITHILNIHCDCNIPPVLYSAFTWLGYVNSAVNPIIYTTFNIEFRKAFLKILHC
Description: In Vitro Binding Affinity for Human D2L Receptor
Frozen membranes of human Dopamine D2L receptor-transfected CHO cells were thawed, briefly homogenised using an Ultra-Turrax T25 homogeniser and diluted in Tris-HCl assay buffer containing NaCl, CaCl2, MgCl2, KCl (50, 120, 2, 1, and 5 mM respectively, adjusted to pH 7.7 with HCl) to an appropriate protein concentration optimised for specific and non-specific binding. Radioligand [^3H]Spiperone (NEN, specific activity ˜70 Ci/mmol) was diluted in assay buffer at a concentration of 2 nmol/L. Prepared radioligand (50 μl), along with 50 μl of either the 10% DMSO control, Butaclamol (10^−6 mol/l final concentration), or compound of interest, was then incubated (30 min, 37° C.) with 400 μl of the prepared membrane solution. Membrane-bound activity was filtered through a Packard Filtermate harvester onto GF/B Unifilterplates and washed with ice-cold Tris-HCl buffer (50 mM; pH 7.7; 6×0.5 ml). Filters were allowed to dry before adding scintillation fluid and counting in a Topcount scintillation counter. Percentage specific bound and competition binding curves were calculated using S-Plus software (Insightful).

IC50 [2]	IC50 [3]	IC50 [4]	SMILES	IC50 [1]	NET pIC50 [2]	5-HT2C pIC50 [3]	D2L pIC50 [4]
501 nM	1.7 nM	4.07 nM	OCCC1CCN(CC2CC3c4ccccc4Cc4ccc(F)cc4C3O2)C1 (mixture of isomers) [Compound 6]	1.45 nM			
> 10000 nM	9.33 nM	2.82 nM	N#CCC1CCN(CC2CC3c4ccccc4Cc4ccc(F)cc4C3O2)CC1 (stereo not drawn) [Compound 168]	3.89 nM			
5500 nM	7.59 nM	2.88 nM	CCOC(=O)CC1CCN(CC2CC3c4ccccc4Cc4ccc(F)cc4C3O2)CC1 (stereo not drawn) [Compound 164, [2R-(2α, 3aα, 12bβ)][1-(11-fluoro-3,3a,8,12b-tetrahydro-2H-1-oxa-dibenzo[e,h]-azulen-2-ylmethyl)-piperidin-4-yl]-acetic acid ethyl ester.oxalate (1:1)]				
3630 nM	8.51 nM	10.7 nM	CS(=O)(=O)CCCCNC(=S)NC1CCN(CC2CC3c4ccccc4Cc4ccc(F)cc4C3O2)CC1 (stereo not drawn) [Compound 251]				
4070 nM	9.77 nM	4.79 nM	O=C(NC1CCN(CC2CC3c4ccccc4Cc4ccc(F)cc4C3O2)CC1)c1ccccc1F (stereo not drawn) [Compound 232]				
1700 nM	9.33 nM	40.7 nM	CC(C)(C)OC(=O)N1CCN(C(=O)C2CCN(CC3CC4c5ccccc5Cc5ccc(F)cc5C4O3)CC2)CC1 (stereo not drawn) [Compound 206]				
7760 nM	5.62 nM	21.4 nM	O=C(Nc1ccc2c(c1)CCC2)NC1CCN(CC2CC3c4ccccc4Cc4ccc(F)cc4C3O2)CC1 (stereo not drawn) [Compound 238]				
> 10000 nM	2.88 nM	14.5 nM	CCOC(=O)C1CCCN(C[C@H]2C[C@@H]3c4ccccc4Cc4ccc(F)cc4[C@@H]3O2)C1 (stereo partly drawn) [Compound 160]				
2750 nM	5.01 nM	14.1 nM	O=C(NCc1cccc(I)c1)C1CCN(CC2CC3c4ccccc4Cc4ccc(F)cc4C3O2)CC1 (stereo not drawn) [Compound 196]				
3550 nM	2.69 nM	3.31 nM	O=C(Nc1ccccc1)NC1CCN(CC2CC3c4ccccc4Cc4ccc(F)cc4C3O2)CC1 (stereo not drawn) [Compound 247]				
9120 nM	13.5 nM	18.6 nM	COc1cc(C(=O)NC2CCN(CC3CC4c5ccccc5Cc5ccc(F)cc5C4O3)CC2)cc(OC)c1OC (stereo not drawn) [Compound 235]				
			O=C(O)C(=O)O.O[C@@H]1CCN(C[C@H]2C[C@@H]3c4ccccc4Cc4ccc(F)cc4[C@@H]3O2)C1 [Compound 2]		6.34	9.58	7.86
8510 nM	23.4 nM	17.8 nM	O=C(NC1CCN(CC2CC3c4ccccc4Cc4ccc(F)cc4C3O2)CC1)c1cc2ccccc2s1 (stereo not drawn) [Compound 223]				
> 10000 nM	3.24 nM	6.76 nM	CN(C)C(=O)NC1CCN(CC2CC3c4ccccc4Cc4ccc(F)cc4C3O2)CC1 (stereo not drawn) [Compound 243]				
3980 nM	22.9 nM	23.4 nM	CC(C)(C)CC(C)(C)NC(=O)NC1CCN(CC2CC3c4ccccc4Cc4ccc(F)cc4C3O2)CC1 (stereo not drawn) [Compound 245]				

SMILES	IC50 [2]	IC50 [3]	IC50 [4]	IC50 [1]	NET pIC50 [2]	5-HT2C pIC50 [3]	D2L pIC50 [4]
COC(=O)C1CCN(C[C@H]2C[C@@H]3c4ccccc4Cc4ccc(F)cc4[C@@H]3O2)C1 (stereo partly drawn) [Compound 12]	759 nM	2.04 nM	6.31 nM	1.17 nM			
CCCCNC(=S)N1CCN(C[C@H]2C[C@@H]3c4ccccc4Cc4ccc(F)cc4[C@@H]3O2)CC1 [Compound 108]	3240 nM	16.2 nM	29.5 nM	4.57 nM			
COC1CCN(C[C@H]2C[C@@H]3c4ccccc4Cc4ccc(F)cc4[C@@H]3O2)C1 (stereo partly drawn) [Compound 4]	5890 nM	2.09 nM	16.2 nM	< 10 nM			
CCOC(=O)CC1CN(C[C@H]2C[C@@H]3c4ccccc4Cc4ccc(F)cc4[C@@H]3O2)CCO1 (stereo partly drawn) [Compound 135]	2450 nM	16.6 nM	32.4 nM	11.2 nM			
O=C(OCc1ccccc1)N1CCN(CC2CC3c4ccccc4Cc4ccc(F)cc4C3O2)CC1 (stereo not drawn) [Compound 85]	> 10000 nM	63.1 nM		66.1 nM			
